{
  "source": "ChEMBL document CHEMBL1759934",
  "about": "“Virtual screening-driven identification of human carbonic anhydrase inhibitors incorporating an original, new pharmacophore” (Bioorg Med Chem Lett, 2011)",
  "key": {"Carbonic anhydrase 1": {"biological_target": "Carbonic anhydrase 1 (Homo sapiens, UniProt P00915)", "sequence (P00915 whole entry)": "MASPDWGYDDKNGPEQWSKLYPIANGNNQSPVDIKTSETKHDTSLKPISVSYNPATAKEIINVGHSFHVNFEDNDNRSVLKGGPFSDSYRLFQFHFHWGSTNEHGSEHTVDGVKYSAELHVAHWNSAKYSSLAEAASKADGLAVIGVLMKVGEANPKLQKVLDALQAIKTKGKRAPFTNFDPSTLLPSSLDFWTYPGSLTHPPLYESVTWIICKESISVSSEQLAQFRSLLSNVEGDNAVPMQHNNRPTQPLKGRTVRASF", "experiment": "Inhibition of human carbonic anhydrase 1 after 6 hrs by Lineweaver-Burk plot analysis"}, "Carbonic anhydrase 2": {"biological_target": "Carbonic anhydrase 2 (Homo sapiens, UniProt P00918)", "experiment": "Inhibition of human carbonic anhydrase 2 after 6 hrs by Lineweaver-Burk plot analysis"}},
  "data": [
    {"smiles": "Cc1ccc(C(=O)C(O)(O)C(F)(F)F)cc1", "values": [
      {"measurement": "Ki", "setting": "Carbonic anhydrase 1", "value": 410, "unit": "µM"},
      {"measurement": "Ki", "setting": "Carbonic anhydrase 2", "value": 9, "unit": "µM"}
    ]}
  ]
}
